Results taken from patent US5703106A, “Antagonists of endothelin receptors” (priority 1994, dated 1997).

Legend:
[1] = molecular target: T1, ETB receptor (Sus scrofa, UniProt P35463); assay: Endothelin (ET) receptor binding assay, ETB receptor; settings: [^125 I]ET-3 alone; porcine lung plasma membrane; 37° C., 1 hour, pH 7.4
T1 construct: The plasma membrane of porcine lung (2 mg of protein); from tissue; host or cells: porcine lung plasma membrane
T1 sequence (P35463 27-443): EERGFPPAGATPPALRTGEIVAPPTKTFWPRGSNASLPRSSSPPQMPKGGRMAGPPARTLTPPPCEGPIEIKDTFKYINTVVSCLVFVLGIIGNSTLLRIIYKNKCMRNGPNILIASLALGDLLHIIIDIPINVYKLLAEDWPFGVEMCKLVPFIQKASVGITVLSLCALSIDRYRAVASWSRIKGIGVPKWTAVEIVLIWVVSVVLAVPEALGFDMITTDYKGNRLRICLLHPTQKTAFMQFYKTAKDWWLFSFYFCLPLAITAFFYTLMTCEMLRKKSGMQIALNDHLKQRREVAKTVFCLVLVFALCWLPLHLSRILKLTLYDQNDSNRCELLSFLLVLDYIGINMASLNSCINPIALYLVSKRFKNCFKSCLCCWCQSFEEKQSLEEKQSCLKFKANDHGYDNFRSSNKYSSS
Description: Endothelin (ET) receptor binding assay
(§1) After the incubation, unbound [^125 I]ETs were separated by centrifugation at 20,000×g for 20 min at 4° C. followed by aspiration of the supernatant. The radioactivity in the membrane pellet is measured in Wallac-1470 Wizard autogamma counter (Pharmacia). Nonspecific binding is defined as membrane-associated radioactivity in the presence of saturating concentrations of ETs (100 nM). Nonspecific binding is subtracted from the total binding and the difference is defined as specific binding.

[2] = molecular target: T1, ETB receptor; assay: Scatchard analysis of radioligand binding, ETB receptor; settings: porcine lung plasma membrane, [^125 I]ET-3 alone
Description: as §1, with “binding. Total binding is always less than 15% of the total radioactivity added. […] From the inhibition curves for the binding of [^125 I]ETs, the apparant binding affinity constant (Ki) of one of the test compounds is calculated as a parameter of the affinity for the ETA and ETB receptors, as shown in the following table.” for “binding.”

Row | Ki [1] [nM] | Compound | Bmax [2] [fmol/mg protein]
1 | 0.23 | C=CCS(=O)(=O)NC(=O)[C@H](Cc1c[nH]c2ccccc12)NC(=O)C(Cc1ccc(-c2ccno2)cc1)N(C)C(=O)c1cc(C)cc(C)c1 (some centres unmarked) [Example 9, N-(2-propene)sulfonyl-[N-(3,5-dimethylbenzoyl)-N-methyl-3-[4-(5-isoxazolyl)-phenyl]-(D,L)-alanyl]-(L)-tryptophanamide] | –
2 | – | [^125 I]ET-3: radiolabelled endothelin-3 purchased from Amersham International; ETs are vasoactive peptides with 21 amino acid residues | 362
3 | 0.3 | Cc1cc(C)cc(C(=O)N(C)[C@H](Cc2ccc(-c3ccsc3)cc2)C(=O)NC(Cc2c[nH]c3ccccc23)C(=O)NS(=O)(=O)c2cccs2)c1 (some centres unmarked) [Example 2, N-(2-thienyl)sulfonyl-[N-(3,5-dimethylbenzoyl)-N-methyl-(D)-3-[4-(3-thienyl)phenyl]-alanyl]-(D,L)-tryptophanamide] | –
4 | 3.5 | CCCCS(=O)(=O)NC(=O)[C@@H](NC(=O)C(Cc1ccc(-c2ccno2)cc1)N(C)C(=O)c1cc(C)cc(C)c1)[C@@H](C)CC (some centres unmarked) [10(a), N-butanesulfonyl-[N-(3,5-dimethylbenzoyl)-N-methyl-3-[4-(5-isoxazolyl)-phenyl]-(D,L)-alanyl]-(L)-isoleucineamide] | –
5 | 0.24 | CCCCS(=O)(=O)NC(=O)[C@H](Cc1c[nH]c2ccccc12)NC(=O)C(Cc1ccc(-c2ccno2)cc1)N(C)C(=O)c1cc(C)cc(C)c1 (some centres unmarked) [Example 8, N-butanesulfonyl-[N-(3,5-dimethylbenzoyl)-N-methyl-3-[4-(5-isoxazolyl)-phenyl]-(D,L)-alanyl]-(L)-tryotophanamide] | –
6 | 0.34 | Cc1cc(C)cc(C(=O)N(C)[C@H](Cc2ccc(-c3ccno3)cc2)C(=O)NC(Cc2c[nH]c3ccccc23)C(=O)NS(=O)(=O)c2ccccc2)c1 (some centres unmarked) [Example 6] | –
7 | 0.16 | CCCCS(=O)(=O)NC(=O)[C@H](Cc1c[nH]c2ccccc12)NC(=O)C(Cc1ccc(-n2cncn2)cc1)N(C)C(=O)c1cc(C)cc(C)c1 (some centres unmarked) [Example 12, N-butanesulfonyl-[N-(3,5-dimethylbenzoyl)-N-methyl-3-[4-(1,2,4-triazol-1-yl)-phenyl]-(D,L)-alanyl]-(L)-tryptophanamide] | –
8 | 0.9 | Cc1cc(C)cc(C(=O)N(C)[C@H](Cc2ccc(-c3ccccc3)cc2)C(=O)NC(Cc2c[nH]c3ccccc23)C(=O)NS(=O)(=O)c2ccccc2)c1 (some centres unmarked) [Example 1, N-benzenesulfonyl-[N-(3,5-dimethylbenzoyl)-N-methyl-3-(biphenyl-4-yl)-(D)-alanyl]-(D,L)-tryptophanamide] | –
9 | 0.27 | CCCCS(=O)(=O)NC(=O)[C@H](Cc1c[nH]c2ccccc12)NC(=O)C(Cc1ccc(-n2ccnn2)cc1)N(C)C(=O)c1cc(C)cc(C)c1 (some centres unmarked) [Example 13, N-butanesulfonyl-[N-(3,5-dimethylbenzoyl)-N-methyl-3-[4-(1,2,3-triazol-1-yl)-phenyl]-(D,L)-alanyl]-(L)-tryptophanamide] | –
10 | 2.3 | Cc1cc(C)cc(C(=O)N(C)[C@H](Cc2ccc(O)cc2)C(=O)NC(Cc2c[nH]c3ccccc23)C(=O)NS(=O)(=O)c2ccccc2)c1 (some centres unmarked) [7(9), N-benzenesulfonyl-[N-(3,5-dimethylbenzoyl)-N-methyl-3-(4-hydroxyphenyl)-(D)-alanyl]-(D,L)-tryptophanamide] | –
11 | 1.2 | CCCCS(=O)(=O)NC(=O)[C@@H](NC(=O)C(Cc1ccc(-c2ccno2)cc1)N(C)C(=O)c1cc(C)cc(C)c1)C(C)C (some centres unmarked) [Example 11, N-butanesulfonyl-[N-(3,5-dimethylbenzoyl)-N-methyl-3-[4-(5-isoxazolyl)-phenyl]-(D,L)-alanyl]-(L)-valineamide] | –
